# According to PubChem BioAssay AID316 (DTP/NCI, 2004):
# Values joined by “and” are separate entries in the source; they are usually repeats but may differ in a detail not shown here. Equal entries are not always repeated. Toxic doses and inconclusive results are not listed.
# Test system: P1534 leukemia ip, CD2F1 mice, survival T/C
# Experiment: NCI In Vivo Anticancer Drug Screen. Data for tumor model P1534 Leukemia (intraperitoneal) in CD2F1 (CDF1) mice
# Conditions: endpoint: mean survival time, higher = longer survival
# Method: The antitumor activity of compounds was measured in mice bearing transplantable tumors. Survival or tumor size were measured and the results are expressed as the measurement made in the treated group (T) divided by the measurement made in the vehicle treated control group (C). The tumor model used in this assay is P1534 Leukemia (intraperitoneal) in CD2F1 (CDF1) mice
# [1] = dose: 50.0 mg/kg/injection, schedule: Q01DX010 (ip), vehicle: saline
# [2] = dose: 100.0 mg/kg/injection, schedule: Q01DX010 (ip), vehicle: saline
# [3] = dose: 31.3 mg/kg/injection, schedule: Q01DX010 (ip), vehicle: saline
# [4] = dose: 62.5 mg/kg/injection, schedule: Q01DX010 (ip), vehicle: saline
# [5] = dose: 125.0 mg/kg/injection, schedule: Q01DX010 (ip), vehicle: saline
# [6] = dose: 250.0 mg/kg/injection, schedule: Q01DX010 (ip), vehicle: saline
# [7] = dose: 3.0 mg/kg/injection, schedule: Q01DX010 (ip), vehicle: saline
# [8] = dose: 6.0 mg/kg/injection, schedule: Q01DX010 (ip), vehicle: saline
# [9] = dose: 12.5 mg/kg/injection, schedule: Q01DX010 (ip), vehicle: saline
# [10] = dose: 25.0 mg/kg/injection, schedule: Q01DX010 (ip), vehicle: saline
structure (smiles),measurement,setting,value
O=C(CCCNC(=O)OCc1ccccc1)NCCCCCCCCCCNC(=O)CCCNC(=O)OCc1ccccc1,T/C,[1],89 % of control
same,T/C,[2],89 % of control
N#C[C@@H]1C2C=CC(CC2)[C@H]1C#N,T/C,"dose: 0.25 mg/kg/injection, schedule: Q01DX010 (ip), vehicle: saline",100 % of control
same,T/C,"dose: 0.5 mg/kg/injection, schedule: Q01DX010 (ip), vehicle: saline",103 % of control and 96 % of control
same,T/C,"dose: 1.0 mg/kg/injection, schedule: Q01DX010 (ip), vehicle: saline",103 % of control and 100 % of control
same,T/C,"dose: 2.0 mg/kg/injection, schedule: Q01DX010 (ip), vehicle: saline",103 % of control and 96 % of control
CCCCCCCCCCCCNCCCCCCCCCCCC,T/C,"dose: 5.0 mg/kg/injection, schedule: Q01DX010 (ip), vehicle: other",106 % of control
same,T/C,"dose: 10.0 mg/kg/injection, schedule: Q01DX010 (ip), vehicle: other",98 % of control
COc1ccc2c(c1OC)C(=O)O[C@@H]2[C@H]1c2c(cc3c(c2OC)OCO3)CCN1C,T/C,[3],103 % of control
same,T/C,[4],92 % of control and 100 % of control
same,T/C,[5],100 % of control
same,T/C,[6],100 % of control
CC[C@H](CC[C@@H](C)[C@H]1CC[C@H]2[C@@H]3CC=C4C[C@@H](O)CC[C@]4(C)[C@H]3CC[C@]12C)C(C)C,T/C,"dose: 50.0 mg/kg/injection, schedule: Q01DX010 (ip), vehicle: other",100 % of control
same,T/C,"dose: 100.0 mg/kg/injection, schedule: Q01DX010 (ip), vehicle: other",100 % of control
same,T/C,"dose: 200.0 mg/kg/injection, schedule: Q01DX010 (ip), vehicle: other",106 % of control
same,T/C,"dose: 300.0 mg/kg/injection, schedule: Q01DX010 (ip), vehicle: other",108 % of control
CC(=O)NNC(=O)c1ccccn1,T/C,"dose: 110.0 mg/kg/injection, schedule: Q01DX010 (ip), vehicle: water",100 % of control
same,T/C,"dose: 120.0 mg/kg/injection, schedule: Q01DX010 (ip), vehicle: water",107 % of control
same,T/C,"dose: 140.0 mg/kg/injection, schedule: Q01DX010 (ip), vehicle: water",98 % of control
same,T/C,"dose: 160.0 mg/kg/injection, schedule: Q01DX010 (ip), vehicle: water",112 % of control
N=[N+]=CC(=O)OCC(N)C(=O)O (configuration not stated),T/C,"dose: 6.25 mg/kg/injection, schedule: Q01DX010 (ip), vehicle: other",155 % of control
same,T/C,"dose: 15.5 mg/kg/injection, schedule: Q01DX010 (ip), vehicle: saline",119 % of control
Nc1ncnc2[nH]ncc12,T/C,"dose: 1.5 mg/kg/injection, schedule: Q01DX010 (ip), vehicle: saline",100 % of control
same,T/C,[7],110 % of control and 100 % of control
same,T/C,[8],120 % of control and 100 % of control
same,T/C,"dose: 12.0 mg/kg/injection, schedule: Q01DX010 (ip), vehicle: saline",115 % of control and 95 % of control
CN1CCN(CCCN2c3ccccc3Sc3ccc(C(F)(F)F)cc32)CC1,T/C,"dose: 20.0 mg/kg/injection, schedule: Q01DX010 (ip), vehicle: saline",107 % of control
same,T/C,"dose: 40.0 mg/kg/injection, schedule: Q01DX010 (ip), vehicle: saline",115 % of control
OCCN1CCC(CCCC2CCNCC2)CC1,T/C,[9],96 % of control
same,T/C,[10],93 % of control
same,T/C,[1],89 % of control
CCC12CCCN3CCc4c(n(c5ccccc45)C(O)(C(=O)OC)C1)C32 (configuration not stated),T/C,"dose: 1.88 mg/kg/injection, schedule: Q01DX010 (ip), vehicle: saline",90 % of control
same,T/C,"dose: 3.75 mg/kg/injection, schedule: Q01DX010 (ip), vehicle: saline",93 % of control
same,T/C,"dose: 7.5 mg/kg/injection, schedule: Q01DX010 (ip), vehicle: saline",96 % of control
C[n+]1c2ccccc2nc2c(N)cc(N)cc21,T/C,"dose: 5.2 mg/kg/injection, schedule: Q01DX010 (ip), vehicle: saline",114 % of control
O=C(NCCCCC(NC(=O)c1ccccc1)C(=O)NCCCCCCCCCCNC(=O)C(CCCCNC(=O)c1ccccc1)NC(=O)c1ccccc1)c1ccccc1 (configuration not stated),T/C,"dose: 6.25 mg/kg/injection, schedule: Q01DX010 (ip), vehicle: saline",103 % of control
same,T/C,[9],103 % of control
same,T/C,[10],100 % of control
same,T/C,[1],96 % of control
OCC1OC(n2cnc3c(Cl)ncnc32)C(O)C1O (configuration not stated),T/C,[4],94 % of control and 100 % of control
same,T/C,[5],100 % of control
same,T/C,[6],111 % of control
same,T/C,"dose: 500.0 mg/kg/injection, schedule: Q01DX010 (ip), vehicle: saline",105 % of control and 88 % of control
C[C@H]1/C(=C/C(=O)OCCN(C)C)CC[C@H]2[C@H]1C(=O)C[C@H]1C(C)(C)[C@@H](O)CC[C@]21C,T/C,"dose: 4.0 mg/kg/injection, schedule: Q01DX010 (ip), vehicle: saline",96 % of control
same,T/C,"dose: 8.0 mg/kg/injection, schedule: Q01DX010 (ip), vehicle: saline",113 % of control
NC(Cn1ccc(=O)c(O)c1)C(=O)O (configuration not stated),T/C,"dose: 118.0 mg/kg/injection, schedule: Q01DX010 (ip), vehicle: saline",92 % of control
same,T/C,"dose: 178.0 mg/kg/injection, schedule: Q01DX010 (ip), vehicle: saline",92 % of control
same,T/C,"dose: 267.0 mg/kg/injection, schedule: Q01DX010 (ip), vehicle: saline",92 % of control
CN(/N=N/N(C)c1ccccc1)c1ccccc1,T/C,"dose: 15.6 mg/kg/injection, schedule: Q01DX010 (ip), vehicle: saline",115 % of control
same,T/C,[3],103 % of control
same,T/C,[4],111 % of control
same,T/C,[5],100 % of control
NC(=O)c1ccc(N)nc1,T/C,"dose: 0.25 mg/kg/injection, schedule: Q#A X020 (ip), vehicle: saline",119 % of control
same,T/C,"dose: 0.38 mg/kg/injection, schedule: Q01DX010 (ip), vehicle: saline",120 % of control and 94 % of control
same,T/C,"dose: 0.75 mg/kg/injection, schedule: Q01DX010 (ip), vehicle: saline",153 % of control
same,T/C,"dose: 1.5 mg/kg/injection, schedule: Q01DX006 (iv), vehicle: saline",114 % of control
same,T/C,"dose: 1.5 mg/kg/injection, schedule: Q01DX010 (im), vehicle: saline",121 % of control
same,T/C,"dose: 1.5 mg/kg/injection, schedule: Q01DX010 (oral), vehicle: saline",100 % of control
same,T/C,"dose: 1.5 mg/kg/injection, schedule: Q01DX010 (sc), vehicle: saline",121 % of control
same,T/C,"dose: 1.5 mg/kg/injection, schedule: Q03DX Z (ip), vehicle: saline",119 % of control
same,T/C,"dose: 2.0 mg/kg/injection, schedule: Q#A X020 (ip), vehicle: saline",100 % of control
same,T/C,"dose: 3.0 mg/kg/injection, schedule: Q01DX006 (iv), vehicle: saline",114 % of control
same,T/C,"dose: 3.0 mg/kg/injection, schedule: Q01DX010 (im), vehicle: saline",121 % of control
same,T/C,[7],158 % of control
same,T/C,"dose: 3.0 mg/kg/injection, schedule: Q01DX010 (oral), vehicle: saline",123 % of control
same,T/C,"dose: 3.5 mg/kg/injection, schedule: Q01DX001 (ip), vehicle: saline",115 % of control
same,T/C,"dose: 3.5 mg/kg/injection, schedule: Q07DX Z (ip), vehicle: saline",115 % of control
same,T/C,"dose: 6.0 mg/kg/injection, schedule: Q01DX010 (im), vehicle: saline",121 % of control
same,T/C,[8],88 % of control
same,T/C,"dose: 7.0 mg/kg/injection, schedule: Q01DX001 (ip), vehicle: saline",115 % of control
same,T/C,"dose: 12.0 mg/kg/injection, schedule: Q03DX Z (ip), vehicle: saline",119 % of control
same,T/C,"dose: 14.0 mg/kg/injection, schedule: Q01DX001 (ip), vehicle: saline",117 % of control and 119 % of control
same,T/C,"dose: 14.0 mg/kg/injection, schedule: Q07DX Z (ip), vehicle: saline",117 % of control and 119 % of control
same,T/C,"dose: 28.0 mg/kg/injection, schedule: Q01DX001 (ip), vehicle: saline",88 % of control
same,T/C,"dose: 112.0 mg/kg/injection, schedule: Q01DX001 (ip), vehicle: saline",121 % of control
O=C(NCCCC(NC(=O)OCc1ccccc1)C(=O)NCCCCCCNCCCCCCNC(=O)C(CCCNC(=O)OCc1ccccc1)NC(=O)OCc1ccccc1)OCc1ccccc1 (configuration not stated),T/C,[9],100 % of control
same,T/C,[10],100 % of control
same,T/C,[2],100 % of control
O=CC1CO1 (configuration not stated),T/C,"dose: 13.0 mg/kg/injection, schedule: Q01DX010 (ip), vehicle: saline",107 % of control
same,T/C,"dose: 19.0 mg/kg/injection, schedule: Q01DX010 (ip), vehicle: saline",107 % of control
same,T/C,"dose: 29.0 mg/kg/injection, schedule: Q01DX010 (ip), vehicle: saline",111 % of control
same,T/C,"dose: 29.0 mg/kg/injection, schedule: Q01DX010 (ip), vehicle: steriod suspending solution",100 % of control
same,T/C,"dose: 44.0 mg/kg/injection, schedule: Q01DX010 (ip), vehicle: saline",100 % of control
same,T/C,"dose: 44.0 mg/kg/injection, schedule: Q01DX010 (ip), vehicle: steriod suspending solution",86 % of control
O=C(O)c1[nH]c(=O)[nH]c(=O)c1F,T/C,"dose: 1.25 mg/kg/injection, schedule: Q01DX010 (ip), vehicle: saline",106 % of control
same,T/C,"dose: 5.0 mg/kg/injection, schedule: Q01DX010 (ip), vehicle: saline",236 % of control
same,T/C,"dose: 10.0 mg/kg/injection, schedule: Q01DX010 (ip), vehicle: saline",106 % of control
